Data published in patent publication US20220023181A1, “PEROXIDE-LESS BIOPHOTONIC COMPOSITIONS AND METHODS” (KLOX TECHNOLOGIES LIMITED, priority 2015, published 2022).

Assay: Dilution assay with ROS test assay (liposomes + fluorogenic α-tocopherol probe)
Settings: Example 5 first round; illumination 5 or 9 min per sample
Description: For the dilution assay, an amount of a given gel composition is taken and mixed into a volume of PBS in order to dilute the gel. For example, to make a 10 mL solution ten times diluted, a 1 gram sample of the particular gel is mixed into 9 mL of PBS. Thereafter, depending on the make-up of the sample to be tested, an amount of a particular compound, for example urea peroxide (UP) or a particular salt, could be added in order to either boost an amount of the particular compound that was already in the sample to be tested or to test the effect of adding that given compound per se. With respect to adding UP in order to make test samples with various concentrations to be tested in a concomitant series of tests, an initial sample with a high concentration would be prepared from which aliquots would be taken and diluted down with PBS in order to the test samples with the various concentration of UP. In a multi-well plate, the given diluted sample are mixed with 19.1 μL of the liposome solution (to give a final liposome concentration of 15.4 mg/mL in the test sample) in order to provide a 2 mm thickness of the resulting paste-like mixture, this thickness being equivalent to a thickness of gel that would be spread on a patient or used in an in vitro assay. Also present in the sample-liposome mixture is a quantity of the chemical probe that is used in the reactive oxygen species (ROS) test assay (362.9 μL of the of the diluted gel (i.e., the given gel sample that is to be tested) is mixed with 19.1 μL of liposome-probe, as including the chemical probe in the sample-liposome mixture is to ensure that any ROS species will be afforded a maximal opportunity to interact with the probe and thus be detectable as having been generated as a result of any interaction that may occur in the gel composition upon it becoming activated. […] After the illumination is completed, a 100 μL to 300 μL aliquot of the sample-liposome transferred to a 96-well plate for conducting the ROS test (as further described in (iii) below). For the test samples, stock solutions of the samples were made and diluted such that direct comparisons could be made between the samples (e.g., for the measurement of reactive oxygen species).
The ROS test assay utilized in the experimental protocols of the Examples of the present disclosure is that which is described in Krumova et al. “How Lipid Unsaturation, Peroxyl Radical Partitioning, and Chromanol Lipophilic Tail Affect the Antioxidant Activity of a-Tocopherol: direct Visualization via High-Throughput Fluorescence Studies Conducted with Fluorogenic a-Tocopherol Analogues” (J. Am. Chem. Soc. 2012, vol. 134, pages 10102-10113). The assay utilizes highly sensitive fluorogenic α-tocopherol (TOH) analogues that undergo a 30-fold fluorescence intensity enhancement upon their reaction with peroxyl radicals that are generated due to the oxidation of the liposome membrane with ROS species that may be present in the reaction mixture. The assay utilizes a high-throughput microplate reader that relies on the high sensitivity of the TOH probes and provides a quantitative treatment of the temporal evolution of the fluorescence intensity thereby allowing for kinetic information to be obtained under the conditions being analyzed. The TOH analogues are two-segment receptor-reporter probes that consist of a chromanol moiety coupled to the meso position of a BODIPY fluorophore, either by an ester linker (the probe being called H2B-TOH) or via a methylene linker (the probe being called H2B-PMHC). The chromanol moiety quenches the emission of the fluorophore until it is oxidized following reaction with peroxyl radicals. […]

Compound NC(N)=O.OO [S 20, urea peroxide] has an ROS of 0.34 µM.
Work on NC(N)=O.OO [S 21, urea peroxide] yielded an ROS of 0.39 µM.
Compound NC(N)=O.OO [S 22, urea peroxide] has an ROS of 0.49 µM.
NC(N)=O.OO [S 23, urea peroxide] gave an ROS of 0.46 µM.
NC(N)=O.OO [S 24, urea peroxide] gave an ROS of 0.51 µM.
With NC(N)=O.OO [S 25, urea peroxide] the ROS was 0.56 µM.
NC(N)=O.OO [S 26, urea peroxide] gave an ROS of 0.72 µM.
Compound NC(N)=O.OO [S 27, urea peroxide] has an ROS of 0.75 µM.
With NC(N)=O.OO [S 28, urea peroxide] the ROS was 0.87 µM.
NC(N)=O.OO [S 29, urea peroxide] gave an ROS of 0.86 µM.
